# Assay results: US9844542B2, “Substituted imidazopyridine and triazolopyridine compounds as negative allosteric modulators of mGluR5” (Vanderbilt University, priority 2013, dated 2017)
# Biological target: T1, rat mGluR5 (Rattus norvegicus, UniProt P31424)
# T1 construct: expressed in transfected cells
# Experiment: mGluR5 calcium mobilization assay (FDSS, Fluo-4) in HEK 293A cells stably expressing rat mGluR5
# Format: cell-based
# Conditions: HEK cells transfected with rat mGluR5; antagonism of glutamate EC80 response; ± = standard error of at least three experiments
# Procedure: Human embryonic kidney (HEK) cells transfected with rat or human mGluR5 were plated in clear bottom assay plates for assay in a Functional Drug Screening System (FDSS). The cells were loaded with a Ca^2+-sensitive fluorescent dye (e.g., Fluo-4), and the plates were washed and placed in the FDSS instrument. Test compound was applied to cells 3 seconds after baseline readings were taken. Cells were incubated with the test compounds for 140 seconds and then stimulated with an EC20 concentration of an mGluR5 agonist (e.g., glutamate, 3,5-dihydroxyphenylglycine, or quisqualate); 60-80 seconds later an EC80 concentration of agonist was added and readings taken for an additional 40 seconds. Data were collected at 1 Hz. […] Concentration response curves were generated using a four parameter logistical equation.
# The above described assay was operated in two modes. In the first mode (utilizing a triple add protocol), a range of concentrations of the present compounds were added to cells, followed by two single fixed concentrations of agonist (EC20 followed by EC80). If a compound acted as a potentiator, an EC50 value for potentiation of the EC20 response and a maximum extent of potentiation by the compound at this concentration of agonist was determined by non-linear curve fitting. If a compound acted as an antagonist, an IC50 value for antagonism of the EC80 response and a maximum extent of antagonism by the compound at this concentration of agonist was determined by non-linear curve fitting. In the second mode (utilizing a double add protocol), several fixed concentrations of the present compounds were added to various wells on a plate, followed by a range of concentrations of agonist for each concentration of present compound; the EC50 values for the agonist at each concentration of compound were determined by nonlinear curve fitting. A decrease in the EC50 value of the agonist with increasing concentrations of the present compounds (a leftward shift of the agonist concentration-response curve) is an indication of the degree of mGluR5 positive allosteric modulation at a given concentration of the present compound. An increase in the EC50 value of the agonist with increasing concentrations of the present compounds (a rightward shift of the agonist concentration response curve) is an indication of the degree of mGluR5 antagonism at a given concentration of the present compound. The second mode also indicates whether the present compounds also affect the maximum response to mGluR5 to agonists.
# The mGluR5 activity was determined using the calcium mobilization assays in human embryonic kidney cells as described herein below, wherein the human embryonic kidney cells were transfected with rat mGluR5. The mGluR5 activity data for some compounds are shown as the average of at least three experiments with the standard error in these cases. If no error is indicated for the mGluR5 activity, the values given represent the results from a single experiment or the average of two experiments. The compounds in Table 1 were synthesized with methods identical or analogous to those shown herein. The requisite starting materials were commercially available, described in the literature, or readily synthesized by one skilled in the art of organic synthesis.
# GluMax is the amplitude of response in the presence of 30 μM test compound as a percentage of maximal response (100 μM glutamate). Partial antagonists display concentration-response curves (CRCs) that plateau above 10%.
# The preparation of rat mGluR5 stable cell-lines is as previously described (e.g. see Romano et al. J Biol. Chem. 1996 Nov. 8; 271(45):28612-6).
# T1 sequence (P31424 21-1171 isoform P31424-2 limits assumed): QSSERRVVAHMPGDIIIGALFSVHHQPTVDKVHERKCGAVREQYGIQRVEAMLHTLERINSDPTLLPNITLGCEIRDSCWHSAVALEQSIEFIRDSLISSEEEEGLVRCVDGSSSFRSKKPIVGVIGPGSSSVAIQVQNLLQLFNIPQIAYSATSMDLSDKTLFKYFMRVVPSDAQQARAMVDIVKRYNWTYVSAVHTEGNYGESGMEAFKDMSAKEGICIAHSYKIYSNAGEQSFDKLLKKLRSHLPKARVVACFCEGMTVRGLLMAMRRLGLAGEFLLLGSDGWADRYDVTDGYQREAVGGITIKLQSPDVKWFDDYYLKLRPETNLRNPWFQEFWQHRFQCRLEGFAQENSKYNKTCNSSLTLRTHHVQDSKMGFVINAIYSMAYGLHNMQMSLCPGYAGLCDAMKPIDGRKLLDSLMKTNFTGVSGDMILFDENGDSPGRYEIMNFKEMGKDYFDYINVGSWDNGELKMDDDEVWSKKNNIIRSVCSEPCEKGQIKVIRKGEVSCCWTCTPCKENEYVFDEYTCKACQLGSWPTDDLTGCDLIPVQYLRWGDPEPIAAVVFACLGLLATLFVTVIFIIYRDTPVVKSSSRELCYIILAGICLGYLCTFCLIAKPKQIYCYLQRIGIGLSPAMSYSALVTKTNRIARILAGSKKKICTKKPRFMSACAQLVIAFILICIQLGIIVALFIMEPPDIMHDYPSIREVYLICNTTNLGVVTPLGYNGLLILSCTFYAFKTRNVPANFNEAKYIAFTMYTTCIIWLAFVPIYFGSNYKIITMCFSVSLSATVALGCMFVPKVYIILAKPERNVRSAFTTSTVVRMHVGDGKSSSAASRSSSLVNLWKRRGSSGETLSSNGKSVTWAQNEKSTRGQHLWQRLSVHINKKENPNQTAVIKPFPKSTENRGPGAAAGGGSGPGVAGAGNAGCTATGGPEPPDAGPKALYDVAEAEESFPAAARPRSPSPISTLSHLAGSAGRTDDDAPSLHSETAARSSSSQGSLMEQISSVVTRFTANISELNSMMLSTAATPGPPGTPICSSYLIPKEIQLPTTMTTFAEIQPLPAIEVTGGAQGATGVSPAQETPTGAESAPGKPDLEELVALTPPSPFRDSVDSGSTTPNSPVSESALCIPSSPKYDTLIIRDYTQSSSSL
row,SMILES,IC50 [nM]
1,O=C(Nc1ccc(F)cn1)c1cc(Oc2cncc(F)c2)cn2ccnc12,12
2,Cc1ccc(NC(=O)c2cc(Oc3cncc(F)c3)cn3ccnc23)nc1,48
3,COc1ccc(NC(=O)c2cc(Oc3cncc(F)c3)cn3ccnc23)nc1,39
4,O=C(Nc1cccc(F)n1)c1cc(Oc2cncc(F)c2)cn2ccnc12,42
5,CCc1cccc(NC(=O)c2cc(Oc3cncc(F)c3)cn3ccnc23)n1,248
6,COc1cccc(NC(=O)c2cc(Oc3cncc(F)c3)cn3ccnc23)n1,94
7,Cc1nc(NC(=O)c2cc(Oc3cncc(F)c3)cn3ccnc23)ccc1F,189
8,Cc1nc2c(C(=O)Nc3ccc(F)c(C)n3)cc(Oc3cncc(F)c3)cn2n1,846
9,O=C(Nc1ccccn1)c1cc(Oc2cncnc2)cn2ncnc12,219
10,Cc1ccc(NC(=O)c2cc(Oc3cncnc3)cn3ncnc23)nc1,138
11,O=C(Nc1cccc(F)n1)c1cc(Oc2cncnc2)cn2ncnc12,117
12,Cc1cccc(NC(=O)c2cc(Oc3cncnc3)cn3ncnc23)n1,312
13,CCc1cccc(NC(=O)c2cc(Oc3cncnc3)cn3ncnc23)n1,306
14,Cc1nc(NC(=O)c2cc(Oc3cncnc3)cn3ncnc23)ccc1F,296
15,[2H]c1nc(NC(=O)c2cc(Oc3cncnc3)cn3cnnc23)c([2H])c([2H])c1[2H],469
16,O=C(Nc1ccc(F)cn1)c1cc(Oc2cncnc2)cn2cnnc12,162
17,O=C(Nc1cccc(F)n1)c1cc(Oc2cncnc2)cn2cnnc12,232
18,Cc1cccc(NC(=O)c2cc(Oc3cncnc3)cn3cnnc23)n1,674
19,CCc1cccc(NC(=O)c2cc(Oc3cncnc3)cn3cnnc23)n1,2060
20,COc1cccc(NC(=O)c2cc(Oc3cncnc3)cn3cnnc23)n1,162
21,Cc1ncc(Oc2cc(C(=O)Nc3ccccn3)c3nncn3c2)cn1,9410
22,[2H]c1nc(NC(=O)c2cc(Oc3cnc(C)nc3)cn3cnnc23)c([2H])c([2H])c1[2H],7970

row,SMILES,IC50 [nM]
1,Cc1ncc(Oc2cc(C(=O)Nc3ccc(F)cn3)c3nncn3c2)cn1,> 10000
2,Cc1ccc(NC(=O)c2cc(Oc3cnc(C)nc3)cn3cnnc23)nc1,> 10000
3,COc1ccc(NC(=O)c2cc(Oc3cnc(C)nc3)cn3cnnc23)nc1,> 10000
4,Cc1ncc(Oc2cc(C(=O)Nc3cccc(F)n3)c3nncn3c2)cn1,> 10000
5,CCc1cccc(NC(=O)c2cc(Oc3cnc(C)nc3)cn3cnnc23)n1,> 10000
6,COc1cccc(NC(=O)c2cc(Oc3cnc(C)nc3)cn3cnnc23)n1,> 10000
7,Cc1ncc(Oc2cc(C(=O)Nc3ccc(F)c(C)n3)c3nncn3c2)cn1,> 10000
8,Cc1csc(NC(=O)c2cc(Oc3cncc(Cl)c3)cn3ncnc23)n1,62
9,O=C(Nc1ccccn1)c1cc(Oc2cncc(Cl)c2)cn2ncnc12,32
10,[2H]c1nc(NC(=O)c2cc(Oc3cncc(Cl)c3)cn3ncnc23)c([2H])c([2H])c1[2H],43
11,O=C(Nc1ccc(F)cn1)c1cc(Oc2cncc(Cl)c2)cn2ncnc12,39
12,Cc1ccc(NC(=O)c2cc(Oc3cncc(Cl)c3)cn3ncnc23)nc1,135
13,COc1ccc(NC(=O)c2cc(Oc3cncc(Cl)c3)cn3ncnc23)nc1,92
14,O=C(Nc1cccc(F)n1)c1cc(Oc2cncc(Cl)c2)cn2ncnc12,62
15,Cc1cccc(NC(=O)c2cc(Oc3cncc(Cl)c3)cn3ncnc23)n1,130
16,CCc1cccc(NC(=O)c2cc(Oc3cncc(Cl)c3)cn3ncnc23)n1,264
17,COc1cccc(NC(=O)c2cc(Oc3cncc(Cl)c3)cn3ncnc23)n1,236
18,Cc1nc(NC(=O)c2cc(Oc3cncc(Cl)c3)cn3ncnc23)ccc1F,380
19,Cc1csc(NC(=O)c2cc(Oc3cccnc3)cn3ncnc23)n1,43
20,O=C(Nc1ccccn1)c1cc(Oc2cccnc2)cn2ncnc12,28
21,[2H]c1nc(NC(=O)c2cc(Oc3cccnc3)cn3ncnc23)c([2H])c([2H])c1[2H],26
22,O=C(Nc1ccc(F)cn1)c1cc(Oc2cccnc2)cn2ncnc12,25

row,SMILES,IC50 [nM]
1,Cc1ccc(NC(=O)c2cc(Oc3cccnc3)cn3ncnc23)nc1,50
2,COc1ccc(NC(=O)c2cc(Oc3cccnc3)cn3ncnc23)nc1,142
3,O=C(Nc1cccc(F)n1)c1cc(Oc2cccnc2)cn2ncnc12,32
4,Cc1cccc(NC(=O)c2cc(Oc3cccnc3)cn3ncnc23)n1,41
5,CCc1cccc(NC(=O)c2cc(Oc3cccnc3)cn3ncnc23)n1,114
6,COc1cccc(NC(=O)c2cc(Oc3cccnc3)cn3ncnc23)n1,40
7,Cc1nc(NC(=O)c2cc(Oc3cccnc3)cn3ncnc23)ccc1F,119
8,Cc1ncc(Oc2cc(C(=O)Nc3ccccn3)c3nccn3c2)cn1,3310
9,Cc1ncc(Oc2cc(C(=O)Nc3ccc(F)cn3)c3nccn3c2)cn1,3710
10,Cc1ncc(Oc2cc(C(=O)Nc3cccc(F)n3)c3nccn3c2)cn1,5780
11,Cc1cccc(NC(=O)c2cc(Oc3cnc(C)nc3)cn3ccnc23)n1,3620
12,COc1cccc(NC(=O)c2cc(Oc3cnc(C)nc3)cn3ccnc23)n1,2840
13,Cc1csc(NC(=O)c2cc(Oc3cnc(C)nc3)cn3ccnc23)n1,1090
14,Cc1nc(NC(=O)c2cc(Oc3cncc(F)c3)cn3ncnc23)ccc1F,92
15,[2H]c1nc(NC(=O)c2cc(Oc3cncc(Cl)c3)cn3cnnc23)c([2H])c([2H])c1[2H],217
16,O=C(Nc1ccccn1)c1cc(Oc2cncc(Cl)c2)cn2cnnc12,176
17,O=C(Nc1ccc(F)cn1)c1cc(Oc2cncc(Cl)c2)cn2cnnc12,285
18,Cc1ccc(NC(=O)c2cc(Oc3cncc(Cl)c3)cn3cnnc23)nc1,1050
19,COc1cncc(Oc2cc(C(=O)Nc3nc(C)cs3)c3nccn3c2)c1,66
20,Cc1cccc(NC(=O)c2cc(Oc3cncc(Cl)c3)cn3cnnc23)n1,695
21,COc1cncc(Oc2cc(C(=O)Nc3cccc(OC)n3)c3nccn3c2)c1,268
22,COc1cccc(NC(=O)c2cc(Oc3cncc(Cl)c3)cn3cnnc23)n1,1360

row,SMILES,IC50 [nM]
1,CCc1cccc(NC(=O)c2cc(Oc3cncc(OC)c3)cn3ccnc23)n1,377
2,Cc1csc(NC(=O)c2cc(Oc3cncc(Cl)c3)cn3cnnc23)n1,666
3,COc1cncc(Oc2cc(C(=O)Nc3ccccn3)c3nccn3c2)c1,40
4,COc1ccc(NC(=O)c2cc(Oc3cncc(Cl)c3)cn3cnnc23)nc1,624
5,COc1cncc(Oc2cc(C(=O)Nc3cccc(C)n3)c3nccn3c2)c1,80
6,O=C(Nc1cccc(F)n1)c1cc(Oc2cncc(Cl)c2)cn2cnnc12,414
7,COc1cncc(Oc2cc(C(=O)Nc3ccc(F)cn3)c3nccn3c2)c1,40
8,CCc1cccc(NC(=O)c2cc(Oc3cncc(Cl)c3)cn3cnnc23)n1,1340
9,[2H]c1nc(NC(=O)c2cc(Oc3cncc(OC)c3)cn3ccnc23)c([2H])c([2H])c1[2H],46
10,COc1ccc(NC(=O)c2cc(Oc3cncc(OC)c3)cn3ccnc23)nc1,85
11,Cc1cncc(Oc2cc(C(=O)Nc3ccc(F)cn3)c3ncnn3c2)c1,94
12,CCc1cccc(NC(=O)c2cc(Oc3cncc(C)c3)cn3ncnc23)n1,483
13,Cc1cncc(Oc2cc(C(=O)Nc3nc(C)cs3)c3ncnn3c2)c1,128
14,Cc1cncc(Oc2cc(C(=O)Nc3ccccn3)c3ncnn3c2)c1,57
15,COc1cncc(Oc2cc(C(=O)Nc3nc(C)cs3)c3ncnn3c2)c1,139
16,[2H]c1nc(NC(=O)c2cc(Oc3cncc(C)c3)cn3ncnc23)c([2H])c([2H])c1[2H],55
17,COc1ccc(NC(=O)c2cc(Oc3cncc(OC)c3)cn3cnnc23)nc1,3970
18,Cc1cncc(Oc2cc(C(=O)Nc3cccc(F)n3)c3ncnn3c2)c1,89
19,COc1cncc(Oc2cc(C(=O)Nc3ccc(F)c(C)n3)c3ncnn3c2)c1,1070
20,Cc1ccc(NC(=O)c2cc(Oc3cncc(C)c3)cn3ncnc23)nc1,267
